From patent US7204974B2, “Stabilization of oxidation-sensitive or UV-sensitive active ingredients” (Beiersdorf AG, priority 2001, dated 2007)

Test: Polarity of lipids
Assay type: physicochemical
[1] = further lipids, polarity of ≧30 mN/m
[2] = lipids with a polarity of at most 30 mN/m

Polarity mN/m [1]	Polarity mN/m [2]	Compound
40.5 mN/m		CCCCCCCC/C=C\CCCCCCCC(=O)OCCOCCOCC [Ethoxydiglycol Oleate]
41.9 mN/m		CCCCCCCCCCCCCCCCCC(C)C [Isoeicosane]
43.8 mN/m		CCCCCCCCCCCCCC(C)C [Isohexadecane]
	21.9 mN/m	CCCCCCCCCCCCCCCCCC(=O)OC(C)C [Isopropyl stearate, Isopropyl Stearate]
	22.1 mN/m	CCCCCCCCCCCCCC(=O)OCC(CCCCCCCC)CCCCCCCCCC (stereo not drawn) [M.O.D., Octyldodecyl Myristate]
31.6 mN/m		CCCCCCCCOC(=O)CCCCCCCCCCCCCCC(C)C [Octyl Isostearate]
	17.8 mN/m	CCCCCCCCCCCCCCCCCCOC(=O)CCCCCC [Tegosoft SH, Stearyl Heptanoate]
31.1 mN/m		CC(CCOC(=O)CC(C)CC(C)(C)C)CC(C)(C)C (stereo not drawn) [Trimethylhexyl Isononanoate]
	20.2 mN/m	CCCCCCCC(=O)OCC(COC(=O)CCCCCCC)OC(=O)CCCCCCC [Trivent OCG, Tricaprylin]
	28.5 mN/m	Cyclopolydimethylsiloxane [Dow Corning Fluid 244]
36.2 mN/m		Isocetyl Palmitate
	22.7 mN/m	Phenyl Trimethicone [Silicone oil VP 1120]
	2.4 mN/m	Triisostearin [Prisorine 2041 GTIS]

Continued, compound first:

Compound	Polarity mN/m [1]	Polarity mN/m [2]
CCCCC(CC)COC(=O)CCCCCC(C)C (stereo not drawn) [2-Ethylhexyl Isononanoate]	31.0 mN/m	
CCCCOC(=O)CCCCC(=O)OCCCC [Cetiol B, Dibutyl Adipate]		14.3 mN/m
CC(C)CCCCCCCOC(=O)C(C)(C)C [DUB VCI 10, Isodecyl Neopentanoate]		29.9 mN/m
CCCCC(CC)C(=O)OCCC(C)CC(C)(C)C (stereo not drawn) [Dermol 98, 2-Ethylhexanoic acid 3,5,5-trimethyl ester]		26.2 mN/m
CCCCCCCC(=O)OCCCCCCCC(C)C [Dermol 108, Isodecyl Octanoate]		29.6 mN/m
CC(C)CCCCCCCOC(=O)CC(C)CC(C)(C)C (stereo not drawn) [Dermol 109, Isodecyl 3,5,5-Trimethyl Hexanoate]		29.1 mN/m
CCCCCCCCCC(=O)OCCCC(C)C [Dermol IHD, Isohexyl Decanoate]		29.7 mN/m
CCCCCCOCCCCCC [Dihexyl ether, Dihexyl Ether]		29.2 mN/m
CCCCCCCCCCC(CO)CCCCCCCC (stereo not drawn) [Eutanol G, Octyldodecanol]		24.8 mN/m
CCCCCCC(CCCC)C(=O)O (stereo not drawn) [Isocarb 12, Butyl Octanoic Acid]		22.1 mN/m
CCCCCCC(CO)CCCC (stereo not drawn) [Isofol 12, Butyl Octanol]		17.4 mN/m
CCCCCCCCC(CO)CCCCCC (stereo not drawn) [Isofol 16, Hexyl Decanol]		24.3 mN/m
Cetearyl Isononanoate [Cetiol SN]		28.6 mN/m
Cyclomethicone [DC Fluid 345]		28.5 mN/m
Dioctylcyclohexane	39.0 mN/m	
Isotridecyl 3,5,5-trimethylhexanonanoate [Dermol 139]		24.5 mN/m
PEG 2 Diethylene Hexanoate [Dermol 488]		10.1 mN/m
